Paper PMC10710878 (Journal of receptor and signal transduction research, 2022)
Where a name gives a salt, the structure may show the parent alone. Read-outs that look alike come from different tables or passages of the source.

Assays:
[1] = tested on: human α2A-AR versus α2B- or α2C-AR; details: published EC50 for cloned human α2-ARs, ref Table S3; cited from earlier work
[2] = target: T1, α2A-AR (Rattus norvegicus, UniProt P22909); format: cell-based; details: for pKb (equilibrium dissociation constant, Schild x-intercept): antagonizing EPI-induced reduction of epileptiform burst discharges
T1 sequence (P22909 1-465): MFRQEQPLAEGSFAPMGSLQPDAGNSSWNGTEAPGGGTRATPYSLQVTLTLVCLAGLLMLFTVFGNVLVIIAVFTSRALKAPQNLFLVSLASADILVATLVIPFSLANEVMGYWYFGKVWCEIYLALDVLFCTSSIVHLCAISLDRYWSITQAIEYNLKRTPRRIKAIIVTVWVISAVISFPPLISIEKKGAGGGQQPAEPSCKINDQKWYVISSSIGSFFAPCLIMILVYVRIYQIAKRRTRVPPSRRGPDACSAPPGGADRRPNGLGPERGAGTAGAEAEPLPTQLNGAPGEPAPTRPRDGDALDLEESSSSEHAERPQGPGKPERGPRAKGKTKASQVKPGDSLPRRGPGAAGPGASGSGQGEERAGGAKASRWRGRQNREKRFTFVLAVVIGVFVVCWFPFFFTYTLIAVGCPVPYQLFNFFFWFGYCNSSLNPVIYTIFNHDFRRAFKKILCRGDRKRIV

[3] = tested on: human 5-HT1A; details: published pEC50, ref Table S3; cited from earlier work
[4] = tested on: pyramidal cells; details: modulation of α2A-AR, data not shown

SMILES: Cc1cccc([C@H](C)c2cnc[nH]2)c1C [dexmedetomidine, dexmedetomidine hydrochloride]
- α2-AR subtype selectivity in words [1]: no subtype selectivity

SMILES: N=C(N)N/N=C/c1c(Cl)cccc1Cl [guanabenz, guanabenz acetate]
- Kb [2]: 0.0398 µM

SMILES: COc1cccc(OC)c1OCCNCC1COc2ccccc2O1 (centres unmarked) [WB-4101]
- pKb (equilibrium dissociation constant, Schild x-intercept) [2]: 7.34

SMILES: CN1CC[C@]2(CCN3CCc4c(oc5ccccc45)[C@@H]3C2)N(C)C1=O [MK-912]
- pKb (equilibrium dissociation constant, Schild x-intercept) [2]: 8.32

SMILES: COc1ccccc1N1CCN(CCN2C(=O)c3ccccc3C(C)(C)C2=O)CC1 [ARC-239]
- pKb (equilibrium dissociation constant, Schild x-intercept) [2]: 6.14

SMILES: COC1(C2=NCCN2)COc2ccccc2O1 (centres unmarked) [RX-821002]
- pKb (equilibrium dissociation constant, Schild x-intercept) [2]: 8.87

SMILES: Brc1c(NC2=NCCN2)ccc2nccnc12 [UK-14304]
- lower potency towards 5-HT1A compared with the α2A-AR [3]: 1,000 fold
- greater potency at α2A-ARs than α2B- or α2C-ARs [1]: 10 fold

SMILES: CNC[C@H](O)c1ccc(O)c(O)c1 [EPI, epinephrine]
- hyperpolarization of pyramidal cells [4]: does not hyperpolarize pyramidal cells

SMILES: CCC1(C2=NCCN2)Cc2ccccc2O1 (centres unmarked) [efaroxan, efaroxan hydrochloride]
- Kb [2]: 0.00372 µM

SMILES: CCS(=O)(=O)N1CCC[C@@H]2CN3CCc4cc(OC)ccc4[C@@H]3C[C@@H]21 [RS-79948]
- parallel rightward shift of the control EPI concentration-response curve ([2]; 3 nM RS-79948): 4 fold
- parallel rightward shift of the control EPI concentration-response curve ([2]; 10 nM RS-79948): 13 fold
- parallel rightward shift of the control EPI concentration-response curve ([2]; 30 nM RS-79948): 34 fold
- pKb (equilibrium dissociation constant, Schild x-intercept) [2]: 9.00 ± 0.16
- Schild regression slope ([2]; dose ratios of EPI EC50): 0.95 ± 0.11

SMILES: CC1c2ccccc2CN1CC1=NCCN1 (centres unmarked) [BRL-44408]
- pKb (equilibrium dissociation constant, Schild x-intercept) [2]: 7.81

SMILES: CN1CCN(c2ccc(Nc3c4ccccc4nc4ccccc34)cc2)CC1 [JP-1302]
- pKb (equilibrium dissociation constant, Schild x-intercept) [2]: 5.23
